Source: publication PMC4358806 (European Journal of Medicinal Chemistry, 2013)
Like-named read-outs stand apart in the source and are kept apart here.

What was measured:
[1] = tested on: tumor cell lines; assay: Cytostatic activity, ranges over several tumor cell lines; format: cell-based
[2] = tested on: HIV-1 and HIV-2; format: cell-based
[3] = tested on: HCV replicon (type 1b); details: read-out: EC50 HCV replicon, Huh 7 cells; cited from earlier work
[4] = tested on: Huh 7 cells; details: cited from earlier work
[5] = tested on: HIV-1 (X4LAI.04); assay: microbe, parasite or virus in culture; format: cell-based
[6] = tested on: HEL and CrFK cell cultures; assay: Cytotoxicity; format: cell-based
[7] = tested on: Feline herpes virus; assay: organism not typed; format: cell-based; details: read-out: EC50 Feline herpes virus
[8] = molecular target: T1, carboxypeptidase Y (Saccharomyces cerevisiae, UniProt P00729); assay: Carboxypeptidase Y-mediated cleavage monitored by 31P NMR; format: in vitro ADME; details: d6-acetone and Trizma buffer pH 7.6, room temperature
T1 sequence (P00729 112-532): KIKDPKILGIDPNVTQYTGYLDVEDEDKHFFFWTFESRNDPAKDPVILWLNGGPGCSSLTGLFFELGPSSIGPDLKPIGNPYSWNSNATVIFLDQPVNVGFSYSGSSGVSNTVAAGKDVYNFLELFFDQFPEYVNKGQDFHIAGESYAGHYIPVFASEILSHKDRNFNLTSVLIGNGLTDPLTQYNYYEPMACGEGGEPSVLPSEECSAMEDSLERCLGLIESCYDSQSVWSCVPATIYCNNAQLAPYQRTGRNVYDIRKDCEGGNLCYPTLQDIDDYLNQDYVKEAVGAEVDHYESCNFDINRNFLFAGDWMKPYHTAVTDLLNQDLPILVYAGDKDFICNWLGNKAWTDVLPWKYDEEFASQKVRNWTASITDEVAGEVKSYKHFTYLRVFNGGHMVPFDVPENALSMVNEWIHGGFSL

[9] = tested on: HCV replicon (type 1b); assay: HCV replicon assay; format: cell-based; details: L-alanine vs D-alanine derivative
[10] = tested on: HIV-1(IIIB); format: cell-based
[11] = tested on: HIV-2(ROD); format: cell-based
[12] = tested on: L1210 (mouse lymphocytic leukemia cells); format: cell-based; details: read-out: IC50 (50% inhibitory concentration), proliferation
[13] = tested on: CEM (human T-lymphocyte cells); format: cell-based; details: read-out: IC50 (50% inhibitory concentration), proliferation
[14] = tested on: HeLa (human cervical carcinoma cells); format: cell-based; details: read-out: IC50 (50% inhibitory concentration), proliferation
[15] = tested on: HeLa/TK− cells; format: cell-based, human; details: read-out: IC50 (50% inhibitory concentration), proliferation
[16] = tested on: Herpes simplex virus 1(KOS); format: cell-based, herpes simplex virus type 1; details: read-out: EC50 Herpes simplex virus 1(KOS)
[17] = tested on: Herpes simplex virus 2 (G); format: cell-based, herpes simplex virus type 2; details: read-out: EC50 Herpes simplex virus 2 (G)
[18] = tested on: Herpes simplex virus 1TK−(KOS)ACVr; format: cell-based, herpes simplex virus type 1; details: read-out: EC50 Herpes simplex virus 1TK−(KOS)ACVr
[19] = tested on: human and feline herpes viruses; assay: organism not typed; format: cell-based; details: read-out: EC50 against human and feline herpes viruses
[20] = Cytotoxicity in HCV replicon assay, Huh 7 cells; format: cell-based; details: human, Huh 7 cells (HCV replicon type 1b)
[21] = read-out: IC50, range over all tested tumor cell lines
[22] = read-out: IC50, range over cell lines

C[C@H](NP(=O)(N[C@@H](C)C(=O)OCc1ccccc1)OC[C@H]1O[C@@H](n2ccc(N)nc2=O)CS1)C(=O)OCc1ccccc1 [Compound 25, 3TC-5′-O-bis(benzoxy-L-alaninyl)-phosphate]
IC50 [1, 21]: 38 to 116 µM

Cc1cn([C@H]2C[C@H](N=[N+]=[N-])[C@@H](COP(=O)(N[C@@H](C)C(=O)OCc3ccccc3)N[C@@H](C)C(=O)OCc3ccccc3)O2)c(=O)[nH]c1=O [Compound 20, 3′-azido-3′-deoxythymidine-5′-O-bis(benzoxy-L-alaninyl)-phosphate]
anti-HIV activity compared to the parent [2]: equipotent to the parent

C[C@H](NP(=O)(N[C@@H](C)C(=O)OCC(C)(C)C)OC[C@@H]1C=C[C@H](n2cnc3c(NC4CC4)nc(N)nc32)C1)C(=O)OCC(C)(C)C [Compound 35, abacavir-5′-O-bis-(2,2-dimethylpropoxy-L-alaninyl)-phosphate]
IC50 [1, 22]: 19 to 54 µM

Nc1ccn([C@@H]2CS[C@H](CO)O2)c(=O)n1 [Compound 5, lamivudine, reference compound]
IC50 [1, 21]: > 250 µM

[N-]=[N+]=N[C@]1(CO)O[C@@H](n2ccc(=O)[nH]c2=O)[C@H](O)[C@@H]1O [Compound 7, 4′-azidouridine]
EC50 [3]: > 100 µM
CC50 [4]: > 100 µM

C[C@H](NP(=O)(N[C@@H](C)C(=O)OCc1ccccc1)OCCOCn1cnc2c(=O)[nH]c(N)nc21)C(=O)OCc1ccccc1 [Compound 32, acyclovir-5′-O-bis[(benzoxy-L-alaninyl)]-phosphate]
boost in activity compared to ACV, HIV-1 [5]: > 60 fold
EC50 ([5]; Human immunodeficiency virus 1, MT4, 72 h, read-out: EC50 HIV-1): 2 to 4 µM
MCC (cytotoxicity) [6]: >100 µM
EC50 [7]: > 100 µM
time to full conversion into metabolite [8]: 7.5 h

CCOc1nc(N)nc2c1ncn2[C@@H]1O[C@H](COP(=O)(N[C@@H](C)C(=O)OCC(C)(C)C)N[C@@H](C)C(=O)OCC(C)(C)C)[C@@H](O)[C@@]1(C)F [Compound 14, (2R,3R,4R,5R)-5-(2-amino-6-ethoxy-9H-purin-9-yl)-4-fluoro-2-(hydroxymethyl)-4-methyltetrahydrofuran-3-ol-5′-O-bis-(2,2-dimethylpropoxy-L-alaninyl)-phosphate]
improved anti-HCV activity compared to 15 [9]: 4 fold

C[C@H](NP(=O)(N[C@@H](C)C(=O)OCC(C)(C)C)OCCOCn1cnc2c(=O)[nH]c(N)nc21)C(=O)OCC(C)(C)C [Compound 33, acyclovir-5′-O-bis[(2,2-dimethylpropoxy-L-alaninyl)]-phosphate]
boost in activity compared to ACV, HIV-1 [5]: > 60 fold
MCC (cytotoxicity) [6]: >100 µM
EC50 [7]: > 100 µM

C[C@H](NP(=O)(N[C@@H](C)C(=O)OCC(C)(C)C)OC[C@@H]1CC[C@H](n2cnc3c(N)ncnc32)O1)C(=O)OCC(C)(C)C [Compound 19, ddA-5′-O-bis-(2,2-dimethylpropoxy-L-alaninyl)-phosphate]
boost of activity compared to parent nucleoside, HIV-1 [10]: 72 fold
boost of activity compared to parent nucleoside, HIV-2 [11]: 57 fold
IC50 [1, 22]: 35 to 76 µM

COC(=O)[C@H](C)NP(=O)(N[C@@H](C)C(=O)OC)OC[C@H]1O[C@@H](n2cnc(C(N)=O)c2N)[C@H](O)[C@@H]1O [Compound 39, acadesine-5′-O-bis(methoxy-L-alaninyl)-phosphate]
MCC (cytotoxicity) [6]: >100 µM
EC50 [7]: > 100 µM

C[C@H](NP(=O)(N[C@@H](C)C(=O)OCc1ccccc1)OC[C@@H]1C=C[C@H](n2cnc3c(NC4CC4)nc(N)nc32)C1)C(=O)OCc1ccccc1 [Compound 34, abacavir-5′-O-bis(benzoxy-L-alaninyl)-phosphate]
IC50 [1, 22]: 19 to 54 µM

acadesine-5′-O-bis(2,2-dimethylpentoxy-L-alaninyl)-phosphate [Compound 40]
IC50 [12]: > 250 µM
IC50 [13]: > 250 µM
IC50 [14]: > 250 µM
IC50 [15]: > 250 µM
MCC (cytotoxicity) [6]: >100 µM
EC50 [16]: > 100 µM
EC50 [17]: > 100 µM
EC50 [18]: > 100 µM
EC50 [7]: > 100 µM

[N-]=[N+]=N[C@]1(CO)O[C@@H](n2ccc(N)nc2=O)[C@H](O)[C@@H]1O [Compound 8, 4′-azidocytidine]
EC50 [3]: 7.13 µM
CC50 [4]: > 100 µM

CCCCCc1ccc(-c2cc3cn([C@H]4C[C@H](O)[C@@H](COP(=O)(N[C@@H](C)C(=O)OCc5ccccc5)N[C@@H](C)C(=O)OCc5ccccc5)O4)c(=O)nc3o2)cc1 [Compound 36, 3-(2′-deoxy-β-D-ribofuranosyl)-6-(4-n-pentylphenyl)-2,3-dihydrofuro-[2,3-d]pyrimidin-2-one-5′-O-bis-(benzoxy-L-alaninyl)-phosphate]
EC50 [7]: > 100 µM
EC50 [19]: > 100 µM

NC(=O)c1ncn([C@@H]2O[C@H](CO)[C@@H](O)[C@H]2O)n1 [Compound 9, ribavirin]
EC50 [3]: 87 µM
CC50 [4]: > 100 µM

Nc1nc2c(ncn2COCCO)c(=O)[nH]1 [Compound 10, acyclovir, reference compound]
MCC (cytotoxicity) [6]: >100 µM
EC50 [7]: > 100 µM
EC50 [3]: 30 µM
CC50 [4]: > 30 µM

C[C@H](NP(=O)(N[C@@H](C)C(=O)OCc1ccccc1)OC[C@H]1O[C@@H](n2cnc(C(N)=O)n2)[C@H](O)[C@@H]1O)C(=O)OCc1ccccc1 [Compound 30, ribavirin-5′-O-bis(benzoxy-L-alaninyl)-phoshate]
CC50 [20]: > 100 µM

C[C@H](NP(=O)(N[C@@H](C)C(=O)OCc1ccccc1)OC[C@H]1O[C@@H](n2cnc(C(N)=O)c2N)[C@H](O)[C@@H]1O)C(=O)OCc1ccccc1 [Compound 38, acadesine-5′-O-bis(benzoxy-L-alaninyl)-phosphate]
MCC (cytotoxicity) [6]: >100 µM
EC50 [7]: > 100 µM

NC(=O)c1ncn([C@@H]2O[C@H](CO)[C@@H](O)[C@H]2O)c1N [Compound 13, acadesine, reference compound]
MCC (cytotoxicity) [6]: >100 µM
EC50 [7]: > 100 µM
EC50 [19]: > 100 µM
